Assay results taken from paper PMC6631792, “In Vitro and In Vivo Anti-Breast Cancer Activities of Some Newly Synthesized 5-(thiophen-2-yl)thieno-[2,3-d]pyrimidin-4-one Candidates” (Molecules, 2019).

Legend:
[1] = Average animal weight in MCF-7 mouse xenograft model; type: in vivo; conditions: nude mice with MCF-7 xenograft, i.p.; for Average Weight of Animals in Grams after Days 0: day 0; for Average Weight of Animals in Grams after Days 2: day 2; for Average Weight of Animals in Grams after Days 4: day 4; for Average Weight of Animals in Grams after Days 6: day 6; for Average Weight of Animals in Grams after Days 8: day 8; for Average Weight of Animals in Grams after Days 10: day 10; for Average Weight of Animals in Grams after Days 12: day 12; for Average Weight of Animals in Grams after Days 14: day 14; for Average Weight of Animals in Grams after Days 16: day 16; for Average Weight of Animals in Grams after Days 18: day 18; for Average Weight of Animals in Grams after Days 20: day 20; for Average Weight of Animals in Grams after Days 22: day 22
Text: “In this work, MCF-7 mouse xenograft model was used. The animal protocol was approved by the Institutional Animal Use Ethics and Care Committee of the University of Alabama at Birmingham (50-01-05-08B). Female athymic pathogen-free nude mice (nu/nu, 4–6 weeks) were purchased from Frederick Cancer Research and Development Center (Frederick, MD, USA). To establish MCF-7 human breast cancer xenografts, each of the female nude mice was first implanted with a 60-day (subcutaneously, s.c.) slow release estrogen pellet (SE-121, 1.7 mg […]/pellet; Innovative Research of America, Sarasota, FL, USA). After 24 h, grown cells were harvested, washed twice with serum-free medium, resuspended, and injected subcutaneously (5 million cells/0.2 mL) into the left inguinal area of the mice. During the experiment, animals were checked periodically and the percentages of tumor growth, as well as animal weights, were recorded. Every 48 h, the size of the tumor was recorded by measuring two perpendicular diameters of the tumor and tumor volume was calculated according to Wang et al. [46]”.
“Treated animals and control groups (7–10 mice/group) received different compounds and vehicles, respectively. The tested compounds were dissolved in PEG400:ethanol:saline (57.1:14.3:28.6, v/v/v), and injected intraperitoneal (i.p.) at doses of […], 3 d/wk for 3 weeks. The higher dose (10 µM/kg/d, 3 d/wk) inhibited MCF-7 xenograft tumor growth”.

MCF-7 cells = assay: MTT cytotoxic assay on MCF-7 cells; type: cell-based, Human; conditions: Homo sapiens, MCF7
Text: “Human breast cancer cells (MCF-7) and normal non-tumorigenic MCF-10A cells were used throughout the work. Cells were obtained from ATCC, Gaithersburg, MD, USA. Standard MTT assay was used to explore the possible cytotoxic effects of the synthesized compounds [41, 42]. Medium composition, cultivation conditions and assay performance were exactly the same as our previous work. […] After MTT addition, the absorbance of the dissolved formazan crystals was read at 570 nm. The IC50 values were obtained with linear regression equations using Origin® 6.1 software (Origin Lab Corporation, Northampton, MA, USA)”.

| Structure (SMILES) | melting point [°C] | Average Weight of Animals in Grams after Days 0 [1] [Grams] | Average Weight of Animals in Grams after Days 2 [1] [Grams] | Average Weight of Animals in Grams after Days 4 [1] [Grams] | Average Weight of Animals in Grams after Days 6 [1] [Grams] | Average Weight of Animals in Grams after Days 8 [1] [Grams] | Average Weight of Animals in Grams after Days 10 [1] [Grams] | Average Weight of Animals in Grams after Days 12 [1] [Grams] | Average Weight of Animals in Grams after Days 14 [1] [Grams] | Average Weight of Animals in Grams after Days 16 [1] [Grams] | Average Weight of Animals in Grams after Days 18 [1] [Grams] | Average Weight of Animals in Grams after Days 20 [1] [Grams] | Average Weight of Animals in Grams after Days 22 [1] [Grams] | IC50 (MCF-7 cells) [µM] |
| --- | --- | --- | --- | --- | --- | --- | --- | --- | --- | --- | --- | --- | --- | --- |
| COc1cccc(C=NNC(=O)Cn2cnc3scc(-c4cccs4)c3c2=O)c1OC [Compound 6, N′-(2,3-Dimethoxybenzylidene)-2-(4-oxo-5-(thiophen-2-yl)thieno[2,3-d]pyrimidin-3(4H)-yl)-acetohydrazide] | 248 to 250 | 23.7 | 23.7 | 23.6 | 23.6 | 23.5 | 23.5 | 23.5 | 23.4 | 23.4 | 23.5 | 23.5 | 23.5 | 4.52 ± 0.085 |
| NNC(=O)Cn1cnc2scc(-c3cccs3)c2c1=O [Compound 4, 2-(4-oxo-5-(thiophen-2-yl)thieno[2,3-d]pyrimidin-3(4H)-yl)acetohydrazide] | 205 to 207 | 24.2 | 24.2 | 24.1 | 24.0 | 23.9 | 23.9 | 23.7 | 23.7 | 23.6 | 23.6 | 23.6 | – | 4.87 ± 0.098 |
| CCOC(=O)Cn1cnc2scc(-c3cccs3)c2c1=O [Compound 3, ethyl 2-(4-oxo-5-(thiophen-2-yl)thieno[2,3-d]pyrimidin-3(4H)-yl)acetate] | – | 28 | 28 | 28 | 28 | 28.2 | 27.9 | 27.8 | 27.7 | 27.7 | 27.6 | 27.7 | 27.7 | 5.98 ± 0.099 |
| O=C(Cn1cnc2scc(-c3cccs3)c2c1=O)NN=Cc1ccc(Cl)cc1 [Compound 7, N′-(4-Chlorobenzylidene)-2-(4-oxo-5-(thiophen-2-yl)thieno[2,3-d]pyrimidin-3(4H)-yl)acetohydrazide] | 250 to 252 | 27.3 | 27.3 | 27.2 | 27.2 | 27.2 | 27.1 | 27.1 | 27.1 | 27.0 | 27.0 | 27.0 | 27.0 | 4.33 ± 0.076 |

Further lines, with some results ahead:

| melting point [°C] | Average Weight of Animals in Grams after Days 0 [1] [Grams] | Average Weight of Animals in Grams after Days 2 [1] [Grams] | Average Weight of Animals in Grams after Days 4 [1] [Grams] | Average Weight of Animals in Grams after Days 6 [1] [Grams] | Average Weight of Animals in Grams after Days 8 [1] [Grams] | Average Weight of Animals in Grams after Days 10 [1] [Grams] | Average Weight of Animals in Grams after Days 12 [1] [Grams] | Average Weight of Animals in Grams after Days 14 [1] [Grams] | Average Weight of Animals in Grams after Days 16 [1] [Grams] | Average Weight of Animals in Grams after Days 18 [1] [Grams] | Average Weight of Animals in Grams after Days 20 [1] [Grams] | Average Weight of Animals in Grams after Days 22 [1] [Grams] | Structure (SMILES) | IC50 (MCF-7 cells) [µM] |
| --- | --- | --- | --- | --- | --- | --- | --- | --- | --- | --- | --- | --- | --- | --- |
| – | 24.9 | 24.9 | 24.9 | 24.9 | 24.8 | 24.8 | 24.8 | 24.4 | 24.4 | 24.4 | 24.4 | 24.4 | O=C(Cn1cnc2scc(-c3cccs3)c2c1=O)NNC(=S)Nc1ccccc1 [Compound 10, 2-(2-(4-oxo-5-(thiophen-2-yl)thieno[2,3-d]pyrimidin-3(4H)-yl)acetyl)-N-phenylhydrazine-1-carbothioamide] | 3.55 ± 0.065 |
| 175 to 177 | 24.1 | 24.1 | 24.0 | 24.0 | 24.0 | 24.0 | 23.7 | 23.7 | 23.6 | 23.6 | 23.6 | 23.6 | O=C(Cn1cnc2scc(-c3cccs3)c2c1=O)NN1C(=O)CSC1c1ccc(Cl)cc1 (centres unmarked) [Compound 9, N-(2-(4-Chlorophenyl)-4-oxothiazolidin-3-yl)-2-(4-oxo-5-(thiophen-2-yl)thieno[2,3-d]-pyrimidin-3(4H)-yl)-acetamide] | 2.37 ± 0.053 |
| – | 26.6 | 26.6 | 26.6 | 26.5 | 26.6 | 26.6 | 26.4 | 26.3 | 26.3 | 26.3 | 26.3 | – | O=C(Cn1cnc2scc(-c3cccs3)c2c1=O)NN1C(=O)CSC1=Nc1ccccc1 [Compound 11, N-(4-oxo-2-(phenylimino)thiazolidin-3-yl)-2-(4-oxo-5-(thiophen-2-yl)thieno[2,3-d]-pyrimidin-3(4H)-yl)acetamide] | 2.48 ± 0.054 |
| – | 27.4 | 27.4 | 27.4 | 27.3 | 27.3 | 27.3 | 27.2 | 27.2 | 27.2 | 27.1 | 27.1 | 27.1 | Cc1cc(=O)n(C(=O)Cn2cnc3scc(-c4cccs4)c3c2=O)[nH]1 [Compound 12, 3-(2-(3-methyl-5-oxo-2,5-dihydro-1H-pyrazol-1-yl)-2-oxoethyl)-5-(thiophen-2-yl)thieno-[2,3-d]pyrimidin-4(3H)-one] | 3.36 ± 0.063 |
| – | 26.5 | 26.4 | 26.3 | 26.2 | 26.1 | 25.9 | 25.9 | 25.9 | 25.8 | 25.8 | 25.7 | 25.7 | Nc1cc(O)cc(=O)n1NC(=O)Cn1cnc2scc(-c3cccs3)c2c1=O [Compound 14, N-(6-Amino-4-hydroxy-2-oxopyridin-1(2H)-yl)-2-(4-oxo-5-(thiophen-2-yl)thieno[2,3-d]-pyrimidin-3(4H)-yl)acetamide] | 1.19 ± 0.042 |
